Laboratory results taken from publication PMC11255275, “Structural insights into the triple agonism at GLP-1R, GIPR and GCGR manifested by retatrutide” (Cell Discovery, 2024).
Where two headings read alike, the source gives them in different places.

Columns and labels:
GLP-1R = biological target: T1, GLP-1R (Homo sapiens, UniProt P43220); assay: cAMP accumulation, wild-type GLP-1R; type: cell-based; settings: GLP-1R WT, HEK-293T, TR-FRET, mean ± S.E.M.
T1 construct: expressed in transfected cells; host or cells: HEK-293T
Protocol: (§1) HEK-293T cells were maintained at 37°C in 5% CO2 incubator and seeded onto 6-well cell […]
(§2) culture plates before transfection. After overnight culture, the cells were transiently transfected […]
(§3) with various constructs using Lipofectamine 2000 transfection reagent (Invitrogen). After 24 h, […]
(§4) the transfected cells were seeded onto 384-microtiter plates at a density of 3,000 cells per well […]
(§5) in stimulation buffer (HBSS supplemented with 5 mM HEPES, 0.1% (w/v) casein and 0.5 mM […]
(§6) 3-isobutyl-1-methylxanthine). Different concentrations of retatrutide in stimulation buffer were […]
(§7) added, and the stimulation lasted for 40 min. The reaction was stopped by addition of cAMP […]
(§8) detection buffer containing Eu-cAMP tracer and ULight-anti-cAMP. Plates were then incubated for […]
(§9) 60 min at RT. Time-resolved FRET signals were measured at 620 nm and 665 nm, respectively, by […]
(§10) an EnVision multilabel plate reader (PerkinElmer). Data were analyzed in GraphPad PRISM 9.5 […]
and all values were normalized to that of the wild-type (WT). […]
(§11) accumulation was measured in wild-type (WT) and single-point mutated GLP-1R, GIPR or […]
of the WT and dose-response curves were analyzed using a three-parameter logistic equation. […]
curves were analyzed using a three-parameter logistic equation to obtain pEC50 and Emax values. […]
(§12) way ANOVA was used to determine statistical difference. N.D., values that could not be determined due […]

GLP-1R mutants [1] = biological target: T2, GLP-1R mutants (Homo sapiens, UniProt P43220, W214A); assay: cAMP accumulation, single-point mutated GLP-1R; type: cell-based; settings: GLP-1R W214(ECL1)A; HEK-293T, 40 min, TR-FRET; mean ± S.E.M., n at least 3
T2 construct: expressed in transfected cells; host or cells: HEK-293T
Protocol: as §1, §2, §3, §4, §5, §6, §7, §8, §9, §10
(§13) and all values were normalized to that of the wild-type (WT).
(§14) Supplementary Fig. 5 Effects of receptor mutation on retatrutide-induced cAMP […]
(§15) accumulation. a-c, Signaling profiles of GLP-1R (a), GIPR (b) and GCGR (c) mutants. cAMP […]
as §11
(§16) GCGR expressing HEK-293T cells. cAMP levels were normalized to the maximum response […]
(§17) of the WT and dose-response curves were analyzed using a three-parameter logistic equation.
(§18) Data were generated and graphed as means ± S.E.M. of at least three independent experiments performed in quadruplicate.
(§19) (1 picture or pasted object on this page, not shown here)
(§20) Supplementary Ta b l e S 5 Effects of the ligand-binding pocket residue mutation on retatrutide- […]
(§21) induced cAMP signaling at GLP-1R, GIPR or GCGR. […]
(§22) cAMP levels were normalized to the maximum response of the wild-type (WT) and dose-response […]
(§23) curves were analyzed using a three-parameter logistic equation to obtain pEC50 and Emax values. The […]
(§24) experiments were carried out independently at least three times. Data shown are means ± S.E.M. One- […]
as §12
(§25) to incomplete curve fits. *P< 0.05, **P< 0.01, ***P< 0.001 and ****P<0.0001.

GLP-1R mutants [2] = biological target: T3, GLP-1R mutants (Homo sapiens, UniProt P43220, Y145Q); assay: cAMP accumulation, single-point mutated GLP-1R; type: cell-based; settings: GLP-1R Y145(1.40b)Q, HEK-293T, 40 min, TR-FRET, mean ± S.E.M., n at least 3
T3 construct: expressed in transfected cells; host or cells: HEK-293T
Protocol: as §1, §2, §3, §4, §5, §6, §7, §8, §9, §10, §13, §14, §15, §11, §16, §17, §18, §19, §20, §21, §22, §23, §24, §12, §25

GLP-1R mutants [3] = biological target: T4, GLP-1R mutants (Homo sapiens, UniProt P43220, Y205A); assay: cAMP accumulation, single-point mutated GLP-1R; type: cell-based; settings: GLP-1R Y205(2.75b)A, HEK-293T, 40 min, TR-FRET, mean ± S.E.M., n at least 3
T4 construct: expressed in transfected cells; host or cells: HEK-293T
Protocol: as §1, §2, §3, §4, §5, §6, §7, §8, §9, §10, §13, §14, §15, §11, §16, §17, §18, §19, §20, §21, §22, §23, §24, §12, §25

GLP-1R mutants [4] = biological target: T5, GLP-1R mutants (Homo sapiens, UniProt P43220, W91A); assay: cAMP accumulation, single-point mutated GLP-1R; type: cell-based; settings: GLP-1R W91(ECD)A, HEK-293T, 40 min, TR-FRET, mean ± S.E.M., n at least 3
T5 construct: expressed in transfected cells; host or cells: HEK-293T
Protocol: as §1, §2, §3, §4, §5, §6, §7, §8, §9, §10, §13, §14, §15, §11, §16, §17, §18, §19, §20, §21, §22, §23, §24, §12, §25

GLP-1R mutants [5] = assay: cAMP accumulation, single-point mutated GLP-1R; type: cell-based, human; settings: GLP-1R E138(1.33b)R, relative to WT
Protocol: as §1, §2, §3, §4, §5, §6, §7, §8, §9, §10, §13, §14, §15, §11, §16, §17, §18, §19, §20, §21, §22, §23, §24, §12, §25

GLP-1R mutants [6] = biological target: T6, GLP-1R mutants (Homo sapiens, UniProt P43220, E364A); assay: cAMP accumulation, single-point mutated GLP-1R; type: cell-based; settings: GLP-1R E364(6.53b)A, HEK-293T, 40 min, TR-FRET, mean ± S.E.M., n at least 3
T6 construct: expressed in transfected cells; host or cells: HEK-293T
Protocol: as §1, §2, §3, §4, §5, §6, §7, §8, §9, §10, §13, §14, §15, §11, §16, §17, §18, §19, §20, §21, §22, §23, §24, §12, §25

GLP-1R mutants [7] = biological target: T7, GLP-1R mutants (Homo sapiens, UniProt P43220, W39A); assay: cAMP accumulation, single-point mutated GLP-1R; type: cell-based; settings: GLP-1R W39(ECD)A, HEK-293T, 40 min, TR-FRET, mean ± S.E.M., n at least 3
T7 construct: expressed in transfected cells; host or cells: HEK-293T
Protocol: as §1, §2, §3, §4, §5, §6, §7, §8, §9, §10, §13, §14, §15, §11, §16, §17, §18, §19, §20, §21, §22, §23, §24, §12, §25

GLP-1R mutants [8] = biological target: T8, GLP-1R mutants (Homo sapiens, UniProt P43220, E387A); assay: cAMP accumulation, single-point mutated GLP-1R; type: cell-based; settings: GLP-1R E387(7.42b)A; HEK-293T, 40 min, TR-FRET; mean ± S.E.M., n at least 3
T8 construct: expressed in transfected cells; host or cells: HEK-293T
Protocol: as §1, §2, §3, §4, §5, §6, §7, §8, §9, §10, §13, §14, §15, §11, §16, §17, §18, §19, §20, §21, §22, §23, §24, §12, §25

[9] = system: C57/Bl6 diet-induced obese (DIO) mice; settings: cited from earlier work
Text: (§26) The most successful treatments currently available include glucagon-like peptide-1 (GLP-1) receptor agonists (GLP-1RAs), exemplified by semaglutide (approved in 2017, $19.9 billion sales in 2023)[3] and tirzepatide (approved in 2022, $5.3 billion sales in 2023)[4]. […] For humans, events were mild, such as 50 1 ascending (PMID: 4 months ...

[10] = cited from earlier work; for average weight loss: 12 mg dose group
Text: as §26

[11] = C57/Bl6 DIO mice, ref Coskun T et al (supplement ref 17)
[12] = 12 mg, ref Jastreboff AM et al (supplement ref 19)
[13] = ref Rosenstock J et al (supplement ref 20)

T1 sequence (P43220 24-463): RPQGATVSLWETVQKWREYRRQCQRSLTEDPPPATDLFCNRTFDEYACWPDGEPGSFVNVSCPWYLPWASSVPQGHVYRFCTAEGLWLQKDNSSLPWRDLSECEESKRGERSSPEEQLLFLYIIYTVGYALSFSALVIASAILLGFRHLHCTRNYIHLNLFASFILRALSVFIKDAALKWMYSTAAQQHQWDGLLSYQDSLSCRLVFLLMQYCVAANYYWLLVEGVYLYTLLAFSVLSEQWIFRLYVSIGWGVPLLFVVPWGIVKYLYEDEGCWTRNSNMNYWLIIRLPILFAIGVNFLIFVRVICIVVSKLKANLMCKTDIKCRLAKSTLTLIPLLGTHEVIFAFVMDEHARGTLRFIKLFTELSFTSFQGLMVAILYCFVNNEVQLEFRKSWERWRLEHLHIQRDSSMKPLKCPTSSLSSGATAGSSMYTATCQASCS
T5 sequence (P43220 24-463 W91A): as the sequence (P43220 24-463) above, with W68A counted along it
T2 sequence (P43220 24-463 W214A): as the sequence (P43220 24-463) above, with W191A counted along it
T4 sequence (P43220 24-463 Y205A): as the sequence (P43220 24-463) above, with Y182A counted along it
T3 sequence (P43220 24-463 Y145Q): as the sequence (P43220 24-463) above, with Y122Q counted along it
T6 sequence (P43220 24-463 E364A): as the sequence (P43220 24-463) above, with E341A counted along it
T7 sequence (P43220 24-463 W39A): as the sequence (P43220 24-463) above, with W16A counted along it
T8 sequence (P43220 24-463 E387A): as the sequence (P43220 24-463) above, with E364A counted along it

CC[C@H](C)[C@H](NC(=O)[C@H](Cc1ccccc1)NC(=O)[C@H](C)NC(=O)C(C)(C)NC(=O)[C@H](CCC(N)=O)NC(=O)[C@H](C)NC(=O)[C@H](CCCCNC(=O)COCCOCCNC(=O)CC[C@H](NC(=O)CCCCCCCCCCCCCCCCCCC(=O)O)C(=O)O)NC(=O)[C@H](CCCCN)NC(=O)[C@H](CC(=O)O)NC(=O)[C@H](CC(C)C)NC(=O)[C@](C)(CC(C)C)NC(=O)[C@@H](NC(=O)[C@H](CO)NC(=O)[C@H](Cc1ccc(O)cc1)NC(=O)[C@H](CC(=O)O)NC(=O)[C@H](CO)NC(=O)[C@@H](NC(=O)[C@H](Cc1ccccc1)NC(=O)[C@@H](NC(=O)CNC(=O)[C@H](CCC(N)=O)NC(=O)C(C)(C)NC(=O)[C@@H](N)Cc1ccc(O)cc1)[C@@H](C)O)[C@@H](C)O)[C@@H](C)CC)C(=O)N[C@@H](CCC(=O)O)C(=O)N[C@@H](Cc1ccc(O)cc1)C(=O)N[C@@H](CC(C)C)C(=O)N[C@@H](CC(C)C)C(=O)N[C@@H](CCC(=O)O)C(=O)NCC(=O)NCC(=O)N1CCC[C@H]1C(=O)N[C@@H](CO)C(=O)N[C@@H](CO)C(=O)NCC(=O)N[C@@H](C)C(=O)N1CCC[C@H]1C(=O)N1CCC[C@H]1C(=O)N1CCC[C@H]1C(=O)N[C@@H](CO)C(N)=O [retatrutide]
Emax ± S.E.M. (% WT) (GLP-1R; 40 min, n at least 3): 100.00 ± 2.75 % WT | EC50 (GLP-1R; 40 min stimulation, at least 3 independent experiments in quadruplicate): 0.00891 nM | EC50 (GLP-1R mutants [1]): 0.00562 nM | Emax ± S.E.M. (% WT) (GLP-1R mutants [1]): 100.98 ± 3.27 % WT | EC50 (GLP-1R mutants [2]; ****P < 0.0001): 0.355 nM | Emax ± S.E.M. (% WT) (GLP-1R mutants [2]; ***P < 0.001): 73.89 ± 5.95 % WT | Emax ± S.E.M. (% WT) (GLP-1R mutants [3]): 101.35 ± 4.70 % WT | EC50 (GLP-1R mutants [3]; **P < 0.01): 0.0389 nM | Emax ± S.E.M. (% WT) (GLP-1R mutants [4]): 102.36 ± 4.73 % WT | EC50 (GLP-1R mutants [4]; ****P < 0.0001): 0.0832 nM | change of retatrutide potency by mutation (GLP-1R mutants [5]): modestly increased | Emax ± S.E.M. (% WT) (GLP-1R mutants [6]): 98.84 ± 4.77 % WT | EC50 (GLP-1R mutants [6]; ***P < 0.001): 0.0407 nM | Emax ± S.E.M. (% WT) (GLP-1R mutants [7]): 101.39 ± 3.58 % WT | EC50 (GLP-1R mutants [7]; **P < 0.01): 0.0389 nM | EC50 (GLP-1R mutants [8]): 0.00933 nM | Emax ± S.E.M. (% WT) (GLP-1R mutants [8]): 100.40 ± 3.44 % WT | ED50, body weight reduction [9, 11]: 4.73 nmol/kg | body weight and calorie intake [9, 11]: dose-dependently reduced | body weight loss compared with tirzepatide ([9]; obese mice, due to an increased energy expenditure through GCGR activation): greater body weight losses in obese mice than tirzepatide | participants with weight reduction of 5% or more ([10]; 8 mg or 12 mg, ref Jastreboff AM et al (supplement ref 19)): All the participants | participants who lost 20% or more of baseline weight [10, 12]: nearly two thirds | participants who lost 25% or more of baseline weight [10, 12]: nearly half | participants who lost 30% or more of baseline weight [10, 12]: a quarter | average weight loss ([10]; 24 weeks): 17.5% | least-squares mean percentage change in body weight ([10]; 24 weeks, 12-mg group, placebo –1.6%, ref Jastreboff AM et al (supplement ref 19)): –17.5% | least-squares mean percentage change in body weight ([10]; 24 weeks, combined 4-mg group, placebo –1.6%, ref Jastreboff AM et al (supplement ref 19)): –12.9% | least-squares mean percentage change in body weight ([10]; 24 weeks, combined 8-mg group, placebo –1.6%, ref Jastreboff AM et al (supplement ref 19)): –17.3% | participants who lost at least 15% of body weight (up to) ([10]; 36 weeks, ref Rosenstock J et al (supplement ref 20)): Up to 63% | average weight loss ([10]; 48 weeks): 24.2% | least-squares mean percentage change in body weight ([10]; 48 weeks, 12-mg group, placebo –2.1%, ref Jastreboff AM et al (supplement ref 19)): –24.2% | least-squares mean percentage change in body weight ([10]; 48 weeks, combined 4-mg group, placebo –2.1%, ref Jastreboff AM et al (supplement ref 19)): –17.1% | least-squares mean percentage change in body weight ([10]; 48 weeks, combined 8-mg group, placebo –2.1%, ref Jastreboff AM et al (supplement ref 19)): –22.8% | blood pressure ([10]; dose-dependent, ref Rosenstock J et al (supplement ref 20)): reduction of blood pressure | frequency of gastrointestinal events by starting dose ([10]; in vivo): occurred more frequently | heart rate ([10]; in vivo): Dose-dependent increases | mitigation of gastrointestinal adverse events by lower starting dose ([10]; in vivo): partially mitigated | participants with gastrointestinal adverse events ([10]; in vivo): 35% | safety profile ([10]; in vivo): safety profile comparable to certain approved GLP-1RAs | severity of most common (gastrointestinal) adverse events ([10]; in vivo): mild to moderate in severity | glycemic control ([10]; phase 2, type 2 diabetes): significant improvements in glycemic control | weight reduction ([10]; phase 2, type 2 diabetes): substantial weight reduction | glycemic control [10, 13]: clinically improvements in glycemic control | non-HDL cholesterol [10, 13]: reduction | reduction of triglycerides [10, 13]: ~ 35%
